Results published in patent US20230257372A1 (CHONG KUN DANG PHARMACEUTICAL CORP., priority 2020, published 2023).
pIC50: −log10 of the molar value. Read-outs that look alike come from different tables or passages of the source.

Tests used:
[1] = molecular target: T1, human recombinant HDAC1 (Homo sapiens, UniProt Q13547); assay: HDAC1 enzyme activity inhibition (HDAC Fluorimetric Drug Discovery Kit); type: biochemical; conditions: read-out: HDAC1
T1 construct: purchased Enzo Life Science, Inc. BML-SE456
In short: (§1)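 Each isoform is run in the same format: compound dilutions (5-fold steps), 10 μM substrate, […] enzyme, one hour at 30° C, then 30 minutes with developer before fluorescence readout.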

[2] = molecular target: T2, human recombinant HDAC6 (Homo sapiens, UniProt Q9UBN7); assay: HDAC6 enzyme activity inhibition (HDAC Fluorimetric Drug Discovery Kit); type: biochemical
T2 construct: purchased Calbiochem Inc. 382180
T2 sequence (Q9UBN7 1-1215): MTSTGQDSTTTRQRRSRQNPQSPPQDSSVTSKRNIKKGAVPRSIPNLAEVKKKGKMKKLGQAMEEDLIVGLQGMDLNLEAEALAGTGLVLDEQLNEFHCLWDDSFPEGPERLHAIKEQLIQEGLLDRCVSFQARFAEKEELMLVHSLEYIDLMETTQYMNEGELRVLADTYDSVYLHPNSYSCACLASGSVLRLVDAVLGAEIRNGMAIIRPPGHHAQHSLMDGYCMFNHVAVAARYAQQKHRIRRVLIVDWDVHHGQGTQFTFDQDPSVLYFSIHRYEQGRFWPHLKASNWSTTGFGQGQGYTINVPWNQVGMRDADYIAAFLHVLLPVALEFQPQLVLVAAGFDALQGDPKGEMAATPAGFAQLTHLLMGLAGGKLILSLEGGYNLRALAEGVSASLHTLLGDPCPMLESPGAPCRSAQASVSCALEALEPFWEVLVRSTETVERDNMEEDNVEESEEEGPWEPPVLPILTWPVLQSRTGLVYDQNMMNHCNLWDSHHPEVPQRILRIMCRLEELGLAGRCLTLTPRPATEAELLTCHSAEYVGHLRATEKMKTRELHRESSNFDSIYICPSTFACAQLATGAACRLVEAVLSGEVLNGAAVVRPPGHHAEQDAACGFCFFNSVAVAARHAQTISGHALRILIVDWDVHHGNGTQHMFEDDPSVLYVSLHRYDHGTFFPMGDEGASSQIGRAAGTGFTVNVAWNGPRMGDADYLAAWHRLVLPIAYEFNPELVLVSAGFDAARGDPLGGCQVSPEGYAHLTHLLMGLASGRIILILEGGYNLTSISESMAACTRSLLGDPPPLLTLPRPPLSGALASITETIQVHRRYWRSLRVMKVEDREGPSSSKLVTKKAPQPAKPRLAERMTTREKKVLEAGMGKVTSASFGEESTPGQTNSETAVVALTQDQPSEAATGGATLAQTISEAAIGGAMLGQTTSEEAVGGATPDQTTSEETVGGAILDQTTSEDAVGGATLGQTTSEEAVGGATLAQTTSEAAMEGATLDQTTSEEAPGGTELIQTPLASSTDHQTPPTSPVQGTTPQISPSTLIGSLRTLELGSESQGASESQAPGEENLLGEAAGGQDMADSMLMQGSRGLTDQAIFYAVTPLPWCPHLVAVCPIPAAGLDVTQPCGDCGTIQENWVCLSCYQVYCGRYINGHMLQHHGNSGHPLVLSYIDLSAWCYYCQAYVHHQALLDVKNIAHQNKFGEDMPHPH
In short: as §1

[3] = human recombinant HDAC1, IC50 calculated with GraphPad Prism
[4] = human recombinant HDAC6, IC50 calculated with GraphPad Prism
[5] = human recombinant HDAC1, Fluor de Lys substrate, 30° C. 60 minutes
[6] = human recombinant HDAC6, same protocol as HDAC1

T1 sequence (Q13547 whole entry): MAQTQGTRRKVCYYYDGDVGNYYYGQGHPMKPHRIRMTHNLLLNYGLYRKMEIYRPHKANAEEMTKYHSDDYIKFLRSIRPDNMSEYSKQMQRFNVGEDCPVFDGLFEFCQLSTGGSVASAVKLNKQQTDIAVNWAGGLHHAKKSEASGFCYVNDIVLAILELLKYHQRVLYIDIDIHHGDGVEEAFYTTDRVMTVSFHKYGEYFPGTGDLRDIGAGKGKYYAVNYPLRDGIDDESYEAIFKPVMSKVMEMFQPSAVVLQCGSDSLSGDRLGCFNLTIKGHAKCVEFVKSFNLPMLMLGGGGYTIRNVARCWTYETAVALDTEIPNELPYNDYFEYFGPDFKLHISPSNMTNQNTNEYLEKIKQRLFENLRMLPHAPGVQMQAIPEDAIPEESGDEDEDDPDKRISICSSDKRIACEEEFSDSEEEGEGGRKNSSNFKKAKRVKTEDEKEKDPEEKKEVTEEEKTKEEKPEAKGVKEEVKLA

Compound | pIC50 [1, 3] | HDAC6 selectivity (fold) ([2]; HDAC1 IC50 / HDAC6 IC50) | pIC50 [2, 4] | pIC50 [1, 5] | HDAC6 selectivity (fold) ([2]; HDAC6 over HDAC1) | pIC50 [2, 6]
CCCN1CCC(Nc2ccc(F)c(-c3cn(Cc4ccc(-c5nnc(C(F)F)o5)cc4F)nn3)c2)CC1 [Compound 4438, N-(3-(1-(4-(5-(difluoromethyl)-1,3,4-oxadiazol-2-yl)-2-fluorobenzyl)-1H-1,2,3-triazol-4-yl)-4-fluorophenyl)-1-propylpiperidin-4-amine] | < 4.30 | 934 | 7.27 | – | – | –
CCN1CCC(F)(c2cn(Cc3ccc(-c4nnc(C(F)F)o4)cn3)nn2)CC1 [Compound 4006, 2-(difluoromethyl)-5-(6-((4-(1-ethyl-4-fluoropiperidin-4-yl)-1H-1,2,3-triazol-1-yl)methyl)pyridin-3-yl)-1,3,4-oxadiazole] | < 4.30 | 375 | 6.88 | – | – | –
Fc1cc(-c2nnc(C(F)F)o2)cnc1Cn1cc(-c2ccc3c(c2)CN(C2CCC2)CC3)nn1 [Compound 19004] | – | – | – | < 4.30 | 640 | 7.11
CN(C(=O)C(C)(C)C)c1cccc(-c2cn(Cc3ccc(-c4nnc(C(F)F)o4)cn3)nn2)c1 [Compound 3889, N-(3-(1-((5-(5-(difluoromethyl)-1,3,4-oxadiazol-2-yl)pyridin-2-yl)methyl)-1H-1,2,3-triazol-4-yl)phenyl)-N-methylpivalamide] | < 4.30 | 1210 | 7.38 | – | – | –
FC(F)c1nnc(-c2ccc(Cn3cc(CCc4cn5ccccc5n4)nn3)nc2)o1 [Compound 3822, 2-(difluoromethyl)-5-(6-((4-(2-(imidazo[1,2-a]pyridin-2-yl)ethyl)-1H-1,2,3-triazol-1-yl)methyl)pyridin-3-yl)-1,3,4-oxadiazole] | < 4.30 | 244 | 6.69 | – | – | –
O=C(O)c1ccc(-c2cn(Cc3ccc(-c4nnc(C(F)F)o4)cc3)nn2)cc1 [Compound 3731, 4-(1-(4-(5-(difluoromethyl)-1,3,4-oxadiazol-2-yl)benzyl)-1H-1,2,3-triazol-4-yl)benzoic acid] | < 4.30 | 29 | 5.76 | – | – | –
Fc1cc(-c2nnc(C(F)F)o2)cnc1Cn1cc(-c2ccc(CN3CCCC3)c(Cl)c2)nn1 [Compound 19096] | – | – | – | < 4.30 | 529 | 7.03
Fc1cc(-c2nnc(C(F)F)o2)ccc1Cn1cc(-c2ccc(CN3CCC(F)(F)C3)nc2)nn1 [Compound 17775, 2-(difluoromethyl)-5-(4-((4-(6-((3,3-difluoropyrrolidin-1-yl)methyl)pyridin-3-yl)-1H-1,2,3-triazol-1-yl)methyl)-3-fluorophenyl)-1,3,4-oxadiazole] | – | – | – | < 4.30 | 531 | 7.03
CN1Cc2cccc(-c3cn(Cc4ccc(-c5nnc(C(F)F)o5)cc4F)nn3)c2C1 [Compound 4534, 2-(difluoromethyl)-5-(3-fluoro-4-((4-(2-methylisoindolin-4-yl)-1H-1,2,3-triazol-1-yl)methyl)phenyl)-1,3,4-oxadiazole] | – | – | – | < 4.30 | 529 | 7.03
CN(C)CCC(=O)Nc1cccc(-c2cn(Cc3ccc(-c4nnc(C(F)F)o4)cn3)nn2)c1 [Compound 4229, N-(3-(1-((5-(5-(difluoromethyl)-1,3,4-oxadiazol-2-yl)pyridin-2-yl)methyl)-1H-1,2,3-triazol-4-yl)phenyl)-3-(dimethylamino)propanamide] | < 4.30 | 1742 | 7.54 | – | – | –
Fc1cc(-c2nnc(C(F)F)o2)ccc1Cn1cc(-c2ccc(N3CCNCC3)cc2F)nn1 [Compound 16797, 2-(difluoromethyl)-5-(3-fluoro-4-((4-(2-fluoro-4-(piperazin-1-yl)phenyl)-1H-1,2,3-triazol-1-yl)methyl)phenyl)-1,3,4-oxadiazole] | – | – | – | < 4.30 | 738 | 7.17
Fc1c(-c2cn(Cc3ccc(-c4nnc(C(F)F)o4)cn3)nn2)cccc1N1CCN(CC2CC(F)(F)C2)CC1 [Compound 4601, 2-(6-((4-(3-(4-((3,3-difluorocyclobutyl)methyl)piperazin-1-yl)-2-fluorophenyl)-1H-1,2,3-triazol-1-yl)methyl)pyridin-3-yl)-5-(difluoromethyl)-1,3,4-oxadiazole] | – | – | – | < 4.30 | 1392 | 7.44
CN(C)Cc1cc(Cl)cc(-c2cn(Cc3ncc(-c4nnc(C(F)F)o4)cc3F)nn2)c1 [Compound 19090, 1-(3-chloro-5-(1-((5-(5-(difluoromethyl)-1,3,4-oxadiazol-2-yl)-3-fluoropyridin-2-yl)methyl)-1H-1,2,3-triazol-4-yl)phenyl)-N,N-dimethylmethanamine] | – | – | – | < 4.30 | 728 | 7.16
FC(F)c1nnc(-c2ccc(Cn3cc(-c4cccc(CN5CC6(COC6)C5)c4)nn3)nc2)o1 [Compound 3965, 6-(3-(1-((5-(5-(difluoromethyl)-1,3,4-oxadiazol-2-yl)pyridin-2-yl)methyl)-1H-1,2,3-triazol-4-yl)benzyl)-2-oxa-6-azaspiro[3.3]heptane] | < 4.30 | 1392 | 7.44 | – | – | –
Fc1cc(-c2nnc(C(F)F)o2)ccc1Cn1cc(-c2cccc(C(F)F)c2)nn1 [Compound 4488, 2-(difluoromethyl)-5-(4-((4-(3-(difluoromethyl)phenyl)-1H-1,2,3-triazol-1-yl)methyl)-3-fluorophenyl)-1,3,4-oxadiazole] | < 4.30 | 1059 | 7.33 | – | – | –
CN(C)C1CCN(Cc2ccc(-c3cn(Cc4ccc(-c5nnc(C(F)F)o5)cc4F)nn3)cc2)CC1 [Compound 4494, 1-(4-(1-(4-(5-(difluoromethyl)-1,3,4-oxadiazol-2-yl)-2-fluorobenzyl)-1H-1,2,3-triazol-4-yl)benzyl)-N,N-dimethylpiperidin-4-amine] | < 4.30 | 1466 | 7.47 | – | – | –
Cc1ccncc1-c1cn(Cc2ccc(-c3nnc(C(F)F)o3)cn2)nn1 [Compound 4181, 2-(difluoromethyl)-5-(6-((4-(4-methylpyridin-3-yl)-1H-1,2,3-triazol-1-yl)methyl)pyridin-3-yl)-1,3,4-oxadiazole] | < 4.30 | 1400 | 7.45 | – | – | –
CC(C)(C)OC(=O)N1CCC(c2cn(Cc3ccc(-c4nnc(C(F)F)o4)cn3)nn2)C1 (stereo not drawn) [Compound 3820, Tert-butyl 3-(1-((5-(5-(difluoromethyl)-1,3,4-oxadiazol-2-yl)pyridin-2-yl)methyl)-1H-1,2,3-triazol-4-yl)pyrrolidin-1-carboxylate] | < 4.30 | 294 | 6.77 | – | – | –
Fc1cc(-c2nnc(C(F)F)o2)ccc1Cn1cc(-c2cccc(N3CCN(CC4(F)CC4)CC3)c2F)nn1 [Compound 4602, 2-(difluoromethyl)-5-(3-fluoro-4-((4-(2-fluoro-3-(4-((1-fluorocyclopropyl)methyl)piperazin-1-yl)phenyl)-1H-1,2,3-triazol-1-yl)methyl)phenyl)-1,3,4-oxadiazole] | – | – | – | < 4.30 | 313 | 6.80
